Results: US6878804B1, “Synthesis of template-fixed β-hairpin loop mimetics” (University of Zurich, priority 1999, dated 2005)
Where two headings read alike, the source gives them in different places. Non-standard residues stand in square brackets, D forms with d. Residues, ends and D or L forms follow the SMILES beside them.

Target: platelet-derived growth factor β-receptor (PDGFR-β) (Homo sapiens, UniProt P09619)
Test: Solid-phase assay: displacement of 125I-PDGF-BB from immobilized PDGFR-β
Format: binding
Method: Direct immobilization of platelet-derived growth factor […] is performed by overnight incubation in immunosorbent 96-well plates (Nunc) at 4° C. using 100 ng of purified protein in 100 μl of 15 mM Na2CO3, 35 mM NaHCO3, pH 9.6. The plates are washed once with tris-buffered saline (TBS, 20 mM Tris-HCl, 150 mM NaCl, pH 7.4), and nonspecific adsorption is blocked by at least 1 h of incubation with TBS plus 1% bovine serum albumin (BSA). Following washing with TBS plus 0.1% Tween, 3000 cpm of ^125I-PDGF-BB and increasing amounts of unlabeled PDGF-BB or the peptide derivative of formula I are added to duplicate wells and incubated for 3 h at room temperature in 0.1% Tween, 1 mM CaCl2, 1 mM MgCl2 and 1% BSA. The plates are washed three times with TBS plus 0.1% Tween, and bound ligand is removed with 0.1 M citric acid, pH 2.5, prior to counting in a γ-counter.
Direct immobilization of platelet-derived growth factor β-receptor (PDGFR-β) was performed by overnight incubation in immunosorbent 96-well plates (Nunc) at 4° C. using 100 ng of purified protein in 100 μl of 15 mM Na2CO3, 35 mM NaHCO3, pH 9.6. Plates were washed once with Tris-buffered saline (TBS, 20 mM Tris-HCL, 150 mM Na Cl, pH 7.4), and nonspecific adsorption was blocked by at least 1 h of incubation with TBS plus 1% bovine serum albumin (BSA). Following washing with TBS plus 0.1% Tween, 3000 cpm of ^125I-PDGF-BB and increasing amounts of unlabeled PDGF-BB or the peptides to be tested were added to duplicate wells and incubated for 3 h at room temperature in TBS plus 0.1% Tween, 1 mM CaCl2, 1 mM MgCl2, and 1% BSA. The plates were washed three times with TBS plus 0.1% Tween, and the bound ligand was removed with 0.1 M citric acid, pH 2.5, before counting in a γ-counter.
The cyclic peptides were analyzed and purified by preparative HPLC (dual-pump Pharmacia system with Waters RCM-μBondapak®-C18-cartridges, 10 μm 300 A 25×100 mm for prep. and 8×100 mm for anal., with flow rates of 8 and 2 ml/mim, respectively; UV detection at 226 and 278 nm), then MS, NMR(600 MHz,1 H) and CD. Solid-phase assays were run, as described in 2.4.

[1] = competition with 125I-PDGF-BB, 3 h at room temperature, immobilized purified PDGFR-β, read-out: Assay I50

platelet-derived growth factor β-receptor (PDGFR-β), sequence (P09619 33-1106, species assumed): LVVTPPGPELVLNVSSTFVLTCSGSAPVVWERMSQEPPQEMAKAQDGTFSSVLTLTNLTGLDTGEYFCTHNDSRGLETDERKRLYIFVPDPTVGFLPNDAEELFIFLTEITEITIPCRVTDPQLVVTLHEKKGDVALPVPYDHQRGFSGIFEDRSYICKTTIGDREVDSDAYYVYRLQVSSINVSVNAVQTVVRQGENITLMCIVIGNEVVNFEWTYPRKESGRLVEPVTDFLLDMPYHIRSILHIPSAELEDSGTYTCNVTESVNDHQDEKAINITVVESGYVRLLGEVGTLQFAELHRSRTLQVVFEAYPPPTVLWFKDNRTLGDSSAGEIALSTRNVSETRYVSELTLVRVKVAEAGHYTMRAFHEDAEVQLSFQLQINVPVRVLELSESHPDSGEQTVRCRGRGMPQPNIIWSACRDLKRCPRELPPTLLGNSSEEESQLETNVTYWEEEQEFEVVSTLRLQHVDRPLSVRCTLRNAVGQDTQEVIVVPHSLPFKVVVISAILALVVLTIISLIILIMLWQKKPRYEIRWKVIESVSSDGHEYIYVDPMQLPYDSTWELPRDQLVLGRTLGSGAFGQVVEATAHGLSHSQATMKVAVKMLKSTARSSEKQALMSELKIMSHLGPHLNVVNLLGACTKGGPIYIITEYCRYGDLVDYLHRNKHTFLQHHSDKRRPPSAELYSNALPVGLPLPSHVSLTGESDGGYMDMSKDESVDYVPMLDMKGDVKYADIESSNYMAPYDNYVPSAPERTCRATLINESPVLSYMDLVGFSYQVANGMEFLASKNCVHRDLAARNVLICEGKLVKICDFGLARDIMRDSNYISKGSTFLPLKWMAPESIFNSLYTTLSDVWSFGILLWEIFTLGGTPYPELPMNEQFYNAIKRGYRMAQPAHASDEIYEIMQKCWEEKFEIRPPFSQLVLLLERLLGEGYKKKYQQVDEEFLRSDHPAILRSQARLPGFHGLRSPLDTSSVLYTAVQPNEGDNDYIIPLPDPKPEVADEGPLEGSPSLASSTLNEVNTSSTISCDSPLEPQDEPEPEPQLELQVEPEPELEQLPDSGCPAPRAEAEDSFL

| Structure (SMILES) | IC50 [1] [µM] | IC50 [µM] |
| --- | --- | --- |
| CC[C@H](C)[C@@H]1NC(=O)[C@H](Cc2ccc(O)cc2)NC(=O)[C@H](CCCCN)NC(=O)[C@H](CCCCN)NC(=O)[C@H](CCCNC(=N)N)NC(=O)[C@H](C(C)C)NC(=O)[C@H](Cc2ccc(O)cc2)NC(=O)[C@H](CCC(=O)O)NC(=O)[C@@H]2CCCN2C(=O)[C@H]2CCCN2C1=O [Example 2] (cyclo(PEYVRKKYI[dP])) | 2000 | – |
| CC[C@H](C)[C@@H]1NC(=O)[C@H](Cc2ccc(O)cc2)NC(=O)[C@@H]2CCCN2C(=O)[C@H]2CCCN2C(=O)[C@H](Cc2ccc(O)cc2)NC(=O)[C@@H]2CCCN2C(=O)[C@H](CCCCN)NC(=O)[C@H](CCCCN)NC(=O)[C@H](CCCNC(=N)N)NC(=O)[C@H](C(C)C)NC1=O [Example 7] (cyclo(PYIVRKKPY[dP])) | 1500 | – |
| CC(C)[C@@H]1NC(=O)[C@H](Cc2ccc(O)cc2)NC(=O)[C@H](Cc2ccc(O)cc2)NC(=O)[C@@H]2CCCN2C(=O)[C@H]2CCCN2C(=O)[C@H](Cc2ccc(O)cc2)NC(=O)[C@H](Cc2ccc(O)cc2)NC(=O)[C@H](CCCCN)NC(=O)[C@H](CCCCN)NC(=O)[C@H](CCCNC(=N)N)NC1=O [Example 8] (cyclo(PYYVRKKYY[dP])) | 800 | – |
| CC[C@H](C)[C@@H]1NC(=O)[C@H](CCC(=O)O)NC(=O)[C@@H]2CCCN2C(=O)[C@H]2CCCN2C(=O)[C@H]([C@@H](C)CC)NC(=O)[C@@H]2CCCN2C(=O)[C@H](CCCCN)NC(=O)[C@H](CCCCN)NC(=O)[C@H](CCCNC(=N)N)NC(=O)[C@H](C(C)C)NC1=O [Example 1] (cyclo(PEIVRKKPI[dP])) | 2200 | – |
| CC(C)[C@@H]1NC(=O)[C@H](CO)NC(=O)[C@H](Cc2c[nH]c3ccccc23)NC(=O)[C@@H]2CCCN2C(=O)[C@H]2CCCN2C(=O)[C@H](Cc2c[nH]c3ccccc23)NC(=O)[C@H](CO)NC(=O)[C@H](CCCCN)NC(=O)[C@H](CCCCN)NC(=O)[C@H](CCCNC(=N)N)NC1=O [Example 17] (cyclo(PWSVRKKSW[dP])) | 800 | – |
| CC[C@H](C)[C@@H]1NC(=O)[C@H](Cc2c[nH]c3ccccc23)NC(=O)[C@@H]2CCCN2C(=O)[C@H]2CCCN2C(=O)[C@H](Cc2c[nH]c3ccccc23)NC(=O)[C@@H]2CCCN2C(=O)[C@H](CCCCN)NC(=O)[C@H](CCCCN)NC(=O)[C@H](CCCNC(=N)N)NC(=O)[C@H](C(C)C)NC1=O [Example 13] (cyclo(PWIVRKKPW[dP])) | 260 | – |
| CC(C)[C@@H]1NC(=O)[C@H](CCCCN)NC(=O)[C@H](Cc2c[nH]c3ccccc23)NC(=O)[C@@H]2CCCN2C(=O)[C@H]2CCCN2C(=O)[C@H](Cc2c[nH]c3ccccc23)NC(=O)[C@H](CCCCN)NC(=O)[C@H](CCCCN)NC(=O)[C@H](CCCCN)NC(=O)[C@H](CCCNC(=N)N)NC1=O [Example 18] (cyclo(PWKVRKKKW[dP])) | 500 | – |
| CC(C)[C@@H]1NC(=O)[C@H](CCCCN)NC(=O)[C@H](Cc2ccc(O)cc2)NC(=O)[C@@H]2CCCN2C(=O)[C@H]2CCCN2C(=O)[C@H](Cc2ccc(O)cc2)NC(=O)[C@H](CCCCN)NC(=O)[C@H](CCCCN)NC(=O)[C@H](CCCCN)NC(=O)[C@H](CCCNC(=N)N)NC1=O [Example 12] (cyclo(PYKVRKKKY[dP])) | 1500 | – |
| CC(C)[C@@H]1NC(=O)[C@H](Cc2ccc(O)cc2)NC(=O)[C@H](C)NC(=O)[C@@H]2CCCN2C(=O)[C@H]2CCCN2C(=O)[C@H](C)NC(=O)[C@H](Cc2ccc(O)cc2)NC(=O)[C@H](CCCCN)NC(=O)[C@H](CCCCN)NC(=O)[C@H](CCCNC(=N)N)NC1=O [Example 20] (cyclo(PAYVRKKYA[dP])) | 2000 | – |
| CC(C)[C@@H]1NC(=O)[C@H](C)NC(=O)[C@H](Cc2c[nH]c3ccccc23)NC(=O)[C@@H]2CCCN2C(=O)[C@H]2CCCN2C(=O)[C@H](Cc2c[nH]c3ccccc23)NC(=O)[C@H](C)NC(=O)[C@H](CCCCN)NC(=O)[C@H](CCCCN)NC(=O)[C@H](CCCNC(=N)N)NC1=O [Example 16] (cyclo(PWAVRKKAW[dP])) | 800 | – |
| CC(C)[C@@H]1NC(=O)[C@H](Cc2ccc(O)cc2)NC(=O)[C@H](Cc2c[nH]c3ccccc23)NC(=O)[C@@H]2CCCN2C(=O)[C@H]2CCCN2C(=O)[C@H](Cc2c[nH]c3ccccc23)NC(=O)[C@H](Cc2ccc(O)cc2)NC(=O)[C@H](CCCCN)NC(=O)[C@H](CCCCN)NC(=O)[C@H](CCCNC(=N)N)NC1=O [Example 14] (cyclo(PWYVRKKYW[dP])) | 170 | – |
| CC(C)[C@@H]1NC(=O)[C@H](Cc2c[nH]c3ccccc23)NC(=O)[C@H](C)NC(=O)[C@@H]2CCCN2C(=O)[C@H]2CCCN2C(=O)[C@H](C)NC(=O)[C@H](Cc2c[nH]c3ccccc23)NC(=O)[C@H](CCCCN)NC(=O)[C@H](CCCCN)NC(=O)[C@H](CCCNC(=N)N)NC1=O [Example 21] (cyclo(PAWVRKKWA[dP])) | 2000 | – |
| CC[C@H](C)[C@@H]1NC(=O)[C@H](Cc2c[nH]c3ccccc23)NC(=O)[C@H](CCCCN)NC(=O)[C@H](CCCCN)NC(=O)[C@H](CCCNC(=N)N)NC(=O)[C@H](C(C)C)NC(=O)[C@H](Cc2c[nH]c3ccccc23)NC(=O)[C@H](CCC(=O)O)NC(=O)[C@@H]2CCCN2C(=O)[C@H]2CCCN2C1=O [Example 3] (cyclo(PEWVRKKWI[dP])) | 1500 | – |
| CC(C)[C@@H]1NC(=O)[C@H](CO)NC(=O)[C@H](Cc2ccc(O)cc2)NC(=O)[C@@H]2CCCN2C(=O)[C@H]2CCCN2C(=O)[C@H](Cc2ccc(O)cc2)NC(=O)[C@H](CO)NC(=O)[C@H](CCCCN)NC(=O)[C@H](CCCCN)NC(=O)[C@H](CCCNC(=N)N)NC1=O [Example 11] (cyclo(PYSVRKKSY[dP])) | 2000 | – |
| CC(C)[C@@H]1NC(=O)[C@H](C)NC(=O)[C@H](Cc2ccc(O)cc2)NC(=O)[C@@H]2CCCN2C(=O)[C@H]2CCCN2C(=O)[C@H](Cc2ccc(O)cc2)NC(=O)[C@H](C)NC(=O)[C@H](CCCCN)NC(=O)[C@H](CCCCN)NC(=O)[C@H](CCCNC(=N)N)NC1=O [Example 10] (cyclo(PYAVRKKAY[dP])) | 2000 | – |
| CC(C)[C@@H]1NC(=O)[C@H](Cc2c[nH]c3ccccc23)NC(=O)[C@H](Cc2ccc(O)cc2)NC(=O)[C@@H]2CCCN2C(=O)[C@H]2CCCN2C(=O)[C@H](Cc2ccc(O)cc2)NC(=O)[C@H](Cc2c[nH]c3ccccc23)NC(=O)[C@H](CCCCN)NC(=O)[C@H](CCCCN)NC(=O)[C@H](CCCNC(=N)N)NC1=O [Example 9] (cyclo(YWVRKKWY[dP]P)) | – | 500 |
